IC50 data for one molecule are collected here from article PMC4055737, “Forward Genetic Screening Identifies a Small Molecule That Blocks Toxoplasma gondii Growth by Inhibiting Both Host- and Parasite-Encoded Kinases” (PLoS Pathogens, 2014).

The assay deals with T1, TgMAPK1 (Toxoplasma gondii, UniProt S8EUF0).
T1 construct: gene MAPKL1; full-length, endogenously C-terminally 3×HA-tagged TgMAPK1 (TGGT1_312570), immunoprecipitated from RH strain tachyzoite lysates
Put plainly: in vitro autokinase assay (γ[…]-ATP) on anti-HA immunoprecipitated kinase, dose response. It counts as biochemical.

Where a name gives a salt, the structure may show the parent alone.

T1 sequence (S8EUF0 whole entry): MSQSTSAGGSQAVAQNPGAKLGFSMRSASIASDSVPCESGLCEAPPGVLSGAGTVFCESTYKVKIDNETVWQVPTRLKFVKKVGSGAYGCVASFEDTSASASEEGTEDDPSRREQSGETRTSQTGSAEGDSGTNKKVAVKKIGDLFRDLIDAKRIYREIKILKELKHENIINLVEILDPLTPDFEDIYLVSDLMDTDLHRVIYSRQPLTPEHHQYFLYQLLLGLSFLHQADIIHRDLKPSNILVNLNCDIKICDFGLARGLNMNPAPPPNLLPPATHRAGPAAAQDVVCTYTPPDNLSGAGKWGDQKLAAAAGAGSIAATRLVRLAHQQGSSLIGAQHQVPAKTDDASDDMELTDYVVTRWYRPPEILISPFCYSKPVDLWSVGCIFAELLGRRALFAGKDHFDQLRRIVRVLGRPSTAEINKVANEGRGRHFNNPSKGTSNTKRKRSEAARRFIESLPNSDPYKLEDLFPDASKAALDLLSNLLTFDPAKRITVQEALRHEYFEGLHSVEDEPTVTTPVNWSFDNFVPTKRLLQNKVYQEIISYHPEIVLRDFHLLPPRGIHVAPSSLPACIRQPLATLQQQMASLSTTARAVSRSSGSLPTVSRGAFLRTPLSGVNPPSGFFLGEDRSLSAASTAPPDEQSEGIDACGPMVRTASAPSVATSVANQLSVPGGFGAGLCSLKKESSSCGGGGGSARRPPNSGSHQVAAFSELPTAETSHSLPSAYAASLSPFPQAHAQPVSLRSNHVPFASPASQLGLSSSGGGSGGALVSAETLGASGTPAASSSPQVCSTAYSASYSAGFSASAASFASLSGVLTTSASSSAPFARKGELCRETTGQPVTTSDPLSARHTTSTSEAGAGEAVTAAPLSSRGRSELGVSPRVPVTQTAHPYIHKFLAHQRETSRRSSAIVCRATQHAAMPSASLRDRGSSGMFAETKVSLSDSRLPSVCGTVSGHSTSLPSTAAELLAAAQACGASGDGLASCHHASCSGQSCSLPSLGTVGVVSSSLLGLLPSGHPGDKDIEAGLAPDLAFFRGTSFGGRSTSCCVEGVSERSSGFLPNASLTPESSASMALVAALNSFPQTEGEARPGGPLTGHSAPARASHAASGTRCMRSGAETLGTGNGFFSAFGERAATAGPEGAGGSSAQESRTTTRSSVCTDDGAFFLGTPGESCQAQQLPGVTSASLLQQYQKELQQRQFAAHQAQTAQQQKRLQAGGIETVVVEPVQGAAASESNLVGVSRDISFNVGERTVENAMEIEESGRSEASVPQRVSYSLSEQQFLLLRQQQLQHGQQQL

`Cc1cccc(-c2[nH]c(C(C)(C)C)nc2-c2ccc3c(c2)OCO3)n1` [SB505124, 2-(5-benzo[1,3]dioxol-5-yl-2-tert-butyl-3H-imidazol-4-yl)-6-methylpyridine hydrochloride]: the midpoint of inhibition, the IC50, lay at 125 nM.
